“Also recorded” adds a separate entry of the source.
Assays:
Type in all cases: in vivo
zebrafish larvae [1] = assay: Baseline activity / baseline exposure (90 min continuous light), zebrafish larvae; parameters: key to Baseline Exposure: +: statistically significant increase; −−: statistically significant decrease
Experimental: (§1) The validation process for the phytochemicals derived from Piper methysticum, other Piper plant family members, and non-Piper medicinal plants and fungi includes testing the selected phytochemical drug candidates as singles, doubles, and triples in two complementary zebrafish models of stress and anxiety. These two complementary assays are the Light/Dark Stress Response test that is illustrated in FIG. 5 (after the 90 min study of the effect of the compounds and mixtures on Baseline Activity) and the Thigmotaxis assay, as illustrated in FIG. 61A and FIG. 61B, which is also known as the wall flower effect, like the social anxiety of humans. Zebrafish larvae show a clear and distinct pattern of swimming in response to rapidly alternating light and dark conditions in the Light/Dark Response testing, which trigger a flight or fight response and darting behavior indicative of great stress and anxiety. The Light/Dark testing uses a control group to automatically track, using an automatic tracking device, the larval behavior in response to dark to light conditions. The thigmotaxis assay also uses automatic tracking and appropriate controls. In multiple embodiments additional Zebrafish larvae are given various concentrations of the selected phytochemicals from Table 1 for tracking Light/Dark Responses or Thigmotactic behavioral changes in the treated zebrafish larvae. Table 2A and Table 2B summarize the results from both assays when the individual phytochemicals are exposed to the: Baseline Activity (90 minutes in the light), Light/Dark Stress Response (5 min alternating pulses of dark and light for 30 min.), and Thigmotaxis Activity (% of time in the light center of the chamber (anxiety inducing) versus % of time near the dark (soothing) wall).
(§2) The present invention includes a process to discover new pharmaceutical medicines for the treatment of stress, anxiety and anxiety-related disorders in a human. The preclinical testing included the effects of these 14 individual phytochemicals and 300 ratio-controlled mixtures of these phytochemicals in assays measuring the behavioral stress response patterns of zebrafish larvae. Larval behavior is assessed with at least one functional assay of stress or anxiety following acute exposure to each phytochemical sample formulated. Stereotypical basal activity patterns of zebrafish will be assessed to determine the potential side effects of the phytochemical samples in a concentration dependent manner for each compound on two zebrafish models of stress and anxiety: 1) the Light/Dark Stress Response (5 min alternating pulses of light and dark) in small to med well plates (96-48 well plates), and 2) Thigmotaxis assays in large well plates with 50% of the swimming surface colored dark around the margins of the well in large (24-12 well plates) will be assessed for their efficacy in testing the phytochemicals.
(§3) The discovery methods of the present invention include testing the effects of up to 20 phytochemicals and 40 mixtures of the phytochemicals on behavioral stress response patterns of zebrafish larvae. Larval behavior was assessed with an automated video tracking system following acute exposure to each phytochemical sample. Stereotypical basal activity patterns of larvae were assessed to determine the concentration dependent effect of each compound. A zebrafish model of thigmotaxis in large well plates (24-12 well plates) was assessed for their efficacy in testing the phytochemicals. In the discovery method, fertilized eggs were kept on a re-circulating system in baskets until use at 120 hpf (5 days). At 120 hpf, larvae were loaded into 48 well plates in buffered fish media and acclimated to the plate in a heated light incubator for 2 hours. Larvae were acutely exposed with drug or controls at a 10× concentration and the plate was quickly transferred to a behavioral tracking system. Acute behavioral run was 90 minutes (baseline activity) in the light followed by alternating 5 minute bins (total 2 hours). […]

zebrafish larvae [2] = assay: Light/Dark Stress Response (5 min alternating pulses of dark and light for 30 min); parameters: key to Light/Dark Stress Response: +: statistically significant increase; −−: statistically significant decrease
Experimental: as §1, §2, §3

zebrafish larvae [3] = assay: Zebrafish models of stress and anxiety, overall verdict (Light/Dark Stress Response and thigmotaxis); conditions: for Anti-Anxiety Potential?: API used singly
Experimental: as §1
Additionally, testing is done with mixtures of these same selected phytochemicals from P. methysticum and other plants selected by our in silico analyses. The testing results are analyzed using artificial intelligence systems to rank effectiveness in reducing the Light/Dark response and thigmotactic behavior for the
The A1 enabled drug discovery platform database search data was evaluated to select the best drug candidates from: A Piper methysticum, B. within the Piper plant family (>200 Piper spp.), or C. traditional medicines to begin testing […] (API) singles, doubles, and triples in two complementary zebrafish models of anxiety light/dark startle response testing and thigmotaxis assays.
as §2
The discovery methods of the present invention include testing the effects of up to 20 phytochemicals and 40 mixtures of the phytochemicals on behavioral stress response patterns of zebrafish larvae. Larval behavior was assessed with an automated video tracking system following acute exposure to each phytochemical sample. […]

zebrafish larvae [4] = assay: Thigmotaxis assay; parameters: key: +: statistically significant increase; −−: statistically significant decrease
Experimental: as §1, §2, §3

Compound | Baseline Exposure (zebrafish larvae [1]; Med) | baseline Activity (90 min light) (zebrafish larvae [1]; vehicle not given) | Light/Dark Stress Response (zebrafish larvae [2]; High) | Light/Dark Stress Response (zebrafish larvae [2]; Med) | Light/Dark Stress Response (5 min light/dark pulses) (zebrafish larvae [2]; vehicle not given) | Anti-Anxiety Potential? (zebrafish larvae [3]) | Therapeutic Potential (zebrafish larvae [3]; vehicle not given) | Baseline Exposure (zebrafish larvae [1]; High) | baseline Activity (90 min light) (zebrafish larvae [1]; vehicle 1% MeOH) | Light/Dark Stress Response (5 min light/dark pulses) (zebrafish larvae [2]; vehicle 1% MeOH) | Therapeutic Potential (zebrafish larvae [3]; vehicle 1% MeOH) | Baseline Exposure (zebrafish larvae [1]; Low) | Light/Dark Stress Response (zebrafish larvae [2]; Low) | Thigmotaxis Model (zebrafish larvae [4]; High) | Thigmotaxis Model (zebrafish larvae [4]; Med)
CCCCCCCCCCCCCCCC(=O)NCCO [N-palmitoyl ethanolamide (PEA), N-palmitoyl ethanolamide] | + | baseline activity not like controls; also recorded: (increased at all concentrations) | + | + | stress response sometimes increased | No | No |  |  |  |  |  |  |  | 
COc1c(O)cc(O)c2c(=O)cc(-c3ccccc3)oc12 [Wogonin (hydrate), wogonin] | + |  |  |  |  | No |  | + | baseline activity not like controls; also recorded: (increased at med/high | no reduction in stress response | No |  |  |  | 
O=c1cc(-c2ccccc2)oc2cc(O)c(O)c(O)c12 [bacalein] | + |  | −− | −− |  | Yes |  | −− | baseline activity not like controls; also recorded: (increased at low concentrations,; also recorded: sedating at higher concentrations) | stress response is reduced, but sedation |  |  |  |  | 
C=C1CC/C=C(\C)CC[C@@H]2[C@@H]1CC2(C)C [beta caryophyllene] | + |  | −− |  |  | No |  | + | baseline activity not like controls; also recorded: (increased at all concentrations); also recorded: conc., but baseline activity is concerning | stress response reduced in highest | No | + | + |  | 
C=C(C)[C@@H]1CCC(C)=C[C@H]1c1c(O)cc(CCCCC)cc1O [cannabidiol (CBD), cannabidiol, reference compound] | −− |  | −− | −− |  | Yes |  | −− | baseline activity not like controls; also recorded: (increased at low concentrations,; also recorded: sedating at higher concentrations) | stress response is reduced |  | + | + | −− | 
C=CCc1ccc(OC)cc1 [methyl chavicol (4-allylanisole), 4-allylanisole] | −− |  | + |  |  | No |  | −− | baseline activity not like controls; also recorded: (decreased at high concentrations) | no reduction in stress response, some | No |  |  |  | 
COc1cc(/C=C/C(=O)N2CCC=CC2=O)cc(OC)c1OC [piperlongumine] | + |  | −− |  |  | Yes |  |  | baseline activity not like controls; also recorded: (increased at low concentrations,; also recorded: sedating at higher concentrations) | stress response is reduced |  |  | + | −− | −−
farnesene | + |  | −− |  |  | Yes |  | + |  | no reduction in stress response | No |  |  |  | 

Reference: patent US20260335278A1, “PHYTOCHEMICAL FORMULATIONS FOR TREATING STRESS AND ANXIETY” (GBS GLOBAL BIOPHARMA, INC., priority 2022, published 2026)
